Measurements published in patent publication US9096663B2, “Compositions and methods for treating conditions related to ephrin signaling with cupredoxins and mutants thereof” (The Board of Trustees of the University of Illinois, priority 2001, dated 2015).

Experiments:
Format in all cases: cell-based, human
[1] = test system: MCF-7 breast cancer cells; assay: MCF-7 cell growth, cells counted in coulter counter
Method: The extent of cell growth inhibition was about 25% at 5 ug/ml of the 18-mer synthetic peptide as compared to untreated control.

Glioblastoma LN-229 = assay: MTT assay, glioblastoma LN-229; conditions: 24 h; for induction of cell death, LN-229: 75 μM, 37° C.
Method: (§1) Cytotoxicity effects were determined by MTT assay. […] Percent cytotoxicity is expressed as percentage of ceil death as compared to that of untreated control (0% cytotoxicity).
(§2) Approximately 2×10^4 cells per well were seeded into 96-well culture plates in 100 μl of RPMI 1640 medium. […] After 24 or 48 h treatment, 10 μl of 5 mg/ml MTT solution was added to the culture and incubated for 1 h at 37° C. The MTT reaction was terminated by the addition of 40 mM HCl in isopropanol. The MTT formazan formed was measured spectrophotometrically as described earlier (Mosmann, 1983). Untreated control cells were compared to treated cells for determining viability and therefore a measure of cytotoxicity.

Astrocytoma CCF-STTG1 = assay: MTT assay, astrocytoma CCF-STTG1; conditions: 75 μM, 24 h, 37° C.
Method: as §1, §2

In the case of TFDVSKLKEGEQYMFFCT [Azu 96-113], the “inhibition of MCF-7 cell growth vs untreated control” value ([1]; 5 ug/ml) is reported as “about 25%”, the “inhibition of MCF-7 cell growth vs untreated cells” value ([1]; 50 ug/ml, 48 to 72 hours) is reported as 50% and the “induction of cell death, LN-229” value (Glioblastoma LN-229) is reported as “showed induction of cell death”. The “dose dependence of cytotoxicity, glioblastoma LN-229” value (Glioblastoma LN-229; 10, 25, 50, 75, 100 μM) was “increasing peptide concentrations led to increasing cytotoxicity” and the “induction of cell death, CCF-STTG1” value (Astrocytoma CCF-STTG1) was “showed induction of cell death”.
In the case of VRIKLSTPGVYGVYCE [Plc 70-84], the “induction of cell death, LN-229” value (Glioblastoma LN-229) is reported as “showed induction of cell death” and the “induction of cell death, CCF-STTG1” value (Astrocytoma CCF-STTG1) is reported as “showed induction of cell death”.
